Laboratory results as given in patent publication US20070099911A1, “Pyrroloquinolinone derivatives as 5-hydroxytryptamine-6 ligands” (Wyeth, priority 2005, published 2007).
Counter-ions that a name gives are not always drawn.

Target: T1, human cloned 5-HT6 receptors (Homo sapiens, UniProt P50406)
T1 construct: expressed in transfected cells; host or cells: HeLa cells (membrane preparation)
Test: Comparative evaluation of 5-HT6 binding affinity ([3H]-LSD displacement, Hela cell membranes)
Settings: not given
Protocol: Comparative Evaluation of 5-HT6 Binding Affinity of Test Compounds
The affinity of test compounds for the 5-HT6 receptor is evaluated in the following manner. Cultured Hela cells expressing human cloned 5-HT6 receptors are harvested and centrifuged at low speed (1,000×g) for 10.0 min to remove the culture media. The harvested cells are suspended in half volume of fresh physiological phosphate buffered saline (PBS) solution and recentrifuged at the same speed. This operation is repeated. The collected cells are then homogenized in ten volumes of 50 mM Tris.HCl (pH 7.4) and 0.5 mM EDTA. The homogenate is centrifuged at 40,000×g for 30.0 min, and the precipitate is collected. The obtained pellet is resuspended in 10 volumes of Tris.HCl buffer and recentrifuged at the same speed. The final pellet is suspended in a small volume of Tris.HCl buffer, and the tissue protein content is determined in aliquots of 10-25 microliter volumes. Bovine Serum Albumin is used as the standard in the protein determination according to the method described in Lowry et al., J. Biol. Chem. 1951, 193, 265. The volume of the suspended cell membranes is adjusted to give a tissue protein concentration of 1.0 mg/ml of suspension. The prepared membrane suspension (10 times concentrated) is aliquoted in 1.0 ml volumes and stored at −70° C. until used in subsequent binding experiments.
The reaction is allowed to proceed in the dark for 120 min at room temperature, at which time, the bound ligand-receptor complex is filtered off on a 96-well unifilter with a Packard Filtermate® 196 Harvester. The bound complex caught on the filter disk is allowed to air dry, and the radioactivity is measured in a Packard TopCount® equipped with six photomultiplier detectors, after the addition of 40.0 micoliters Micorscint®-20 scintillant to each shallow well. The unifilter plate is heat-sealed and counted in a Packard TopCount® with a tritium efficiency of 31%.
Specific binding to eh 5-HT6 receptor is defined as the total radioactivity bound less the amount bound in the presence of […] unlabelled methiothipin. Binding in the presence of varying concentrations of test compound is expressed as a percentage of specific binding in the absence of test compound. The results are plotted as log % bound versus log concentration of the test compound. […] A linear regression is plotted, from which the IC50 value is determined, and the Ki value is determined based upon the following equation: Ki=IC50/(1+L/KD) where L is the concentration of the radioactive ligand used and KD is the dissociation constant of the ligand for the receptor, both expressed in nM.

T1 sequence (P50406 whole entry): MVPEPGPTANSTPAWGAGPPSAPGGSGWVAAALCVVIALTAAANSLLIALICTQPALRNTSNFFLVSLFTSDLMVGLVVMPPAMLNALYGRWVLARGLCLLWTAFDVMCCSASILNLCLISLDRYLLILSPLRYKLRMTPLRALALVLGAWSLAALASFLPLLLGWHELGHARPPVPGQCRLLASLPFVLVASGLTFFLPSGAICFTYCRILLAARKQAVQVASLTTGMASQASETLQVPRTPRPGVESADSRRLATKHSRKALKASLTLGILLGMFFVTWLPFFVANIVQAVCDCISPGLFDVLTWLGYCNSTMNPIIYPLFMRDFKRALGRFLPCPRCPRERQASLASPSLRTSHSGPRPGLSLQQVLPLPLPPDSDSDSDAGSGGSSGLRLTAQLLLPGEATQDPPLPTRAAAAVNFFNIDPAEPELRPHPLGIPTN

Row | Compound | Ki [nM]
1 | Cn1ccc2c(ccc3[nH]cc(CCN)c32)c1=O [Example 94] | 18
2 | NCCc1c[nH]c2ccc3c(=O)n(Cc4ccccc4)ccc3c12 [Example 182] | 11
3 | NCCc1c[nH]c2ccc3c(=O)n(CC4CCCCC4)ccc3c12 [Example 269, 1-(2-aminoethyl)-7-cyclohexylmethyl-3H,7H-pyrrolo[3,2-]isoquinolin-6-one] | 13
4 | NCCc1c[nH]c2ccc3c(=O)n(Cc4ccsc4)ccc3c12 [Example 274, 1-(2-aminoethyl)-7-thiophen-3-ylmethyl-3H,7H-pyrrolo[3,2-f]isoquinolin-6-one] | 11
5 | CNCCc1c[nH]c2ccc3c(=O)[nH]ccc3c12 [Example 1021, 1-(2-methylaminoethyl)-3H,7H-pyrrolo[3,2-f]isoquinolin-6-one] | 21
6 | NCCc1c[nH]c2ccc3c(=O)n(Cc4ccccc4)cnc3c12 [Example 1029] | 32

Same assay, conditions: [3H]-LSD displacement, membranes of Hela cells expressing human cloned 5-HT6 receptors; read-out: 5-HT6 binding Ki

Row | Compound | Ki [nM]
7 | O=c1[nH]ccc2c3c(ccc12)N=CC3CCNCc1ccccc1 (stereo not shown) [Example 7A, 1-(2-Benzylaminoethyl)-6,7-dihydro-1H-pyrrolo[3,2-f]isoquinolin-6-one] | 15

Test system: not given
Test: not given
Settings: not given

Row | Compound | melting point
8 | CNCCc1c[nH]c2ccc3c(=O)[nH]ccc3c12 (as salt: HCl) [Example 1021, 1-(2-methylaminoethyl)-3H,7H-pyrrolo[3,2-f]isoquinolin-6-one] | 160 °C
9 | Cn1ccc2c(ccc3[nH]cc(CCN)c32)c1=O (as salt: hydrochloride) [Example 94] | 295 to 298 °C
10 | NCCc1c[nH]c2ccc3c(=O)n(Cc4ccccc4)ccc3c12 (as salt: hydrochloride) [Example 182] | 266 to 268 °C
11 | NCCc1c[nH]c2ccc3c(=O)n(CC4CCCCC4)ccc3c12 (as salt: hydrochloride) [Example 269, 1-(2-aminoethyl)-7-cyclohexylmethyl-3H,7H-pyrrolo[3,2-]isoquinolin-6-one] | 220 to 224 °C
12 | NCCc1c(-c2ccc(Cl)cc2)[nH]c2ccc3c(=O)[nH]ccc3c12 (as salt: hydrochloride) [Example 278, 1-(2-aminoethyl)-2-(4-chlorophenyl)-3H,7H-pyrrolo[3,2-f]isoquinolin-6-one] | > 300 °C
13 | NCCc1c[nH]c2ccc3c(=O)n(Cc4ccccc4)cnc3c12 [Example 1029] | 302 to 305 °C

The next lines start with the values.

Row | melting point | Compound
14 | 279 to 285 °C | Cn1cnc2c(ccc3[nH]cc(CCN)c32)c1=O
15 | 252 °C (dec.) | NCCc1c(Br)[nH]c2ccc3c(=O)[nH]ccc3c12 (as salt: HBr)
16 | 250 to 253 °C | O=c1[nH]ccc2c1ccc1[nH]cc(CCN(Cc3ccccc3)Cc3ccccc3)c12 (as salt: HCl)
17 | 210 °C | O=c1[nH]ccc2c3c(ccc12)N=CC3CCNCc1ccccc1 (stereo not shown) (as salt: HCl) [Example 7A, 1-(2-Benzylaminoethyl)-6,7-dihydro-1H-pyrrolo[3,2-f]isoquinolin-6-one]
18 | 205 to 208 °C | Cn1ccc2c(ccc3[nH]cc(CCNCCc4ccccc4)c32)c1=O (as salt: HCl) [Example 95, 7-methyl-1-(2-phenethylaminoethyl)-3H,7H-pyrrolo[3,2-f]isoquinolin-6-one]
19 | 234 to 236 °C | O=c1c2ccc3c(c(CCN(Cc4ccccc4)Cc4ccccc4)cn3Cc3ccccc3)c2ccn1Cc1ccccc1 (as salt: HCl) [Example 1018, 3,7-dibenzyl-1-(2-dibenzylaminoethyl)-3H,7H-pyrrolo[3,2-f]isoquinolin-6-one]
20 | 152 to 155 °C | CN(CCc1c[nH]c2ccc3c(=O)[nH]ccc3c12)Cc1ccccc1 (as salt: hydrochloride)
21 | 162 to 166 °C | NCCc1c[nH]c2ccc3c(=O)n(CCc4ccccc4)ccc3c12 (as salt: hydrochloride)
22 | 224 to 227 °C | CCn1ccc2c(ccc3[nH]cc(CCN)c32)c1=O (as salt: hydrochloride)
23 | 260 to 262 °C | NCCc1c[nH]c2ccc3c(=O)n(CC4CCCCO4)ccc3c12 (stereo not shown) (as salt: hydrochloride)
24 | 247 to 249 °C | NCCc1c[nH]c2ccc3c(=O)n(Cc4ccc(F)cc4)ccc3c12 (as salt: hydrochloride)
25 | > 250 °C | NCCc1c[nH]c2ccc3c(=O)n(Cc4ccccc4F)ccc3c12 (as salt: hydrochloride)
26 | > 280 °C | NCCc1c[nH]c2ccc3c(=O)[nH]ccc3c12 (as salt: hydrochloride)
27 | 225 to 230 °C | NCCCc1c[nH]c2ccc3c(=O)[nH]ccc3c12 (as salt: hydrochloride) [Example 268, 1-(3-aminopropyl)-3H,7H-pyrrolo[3,2-f]isoquinolin-6-one]
28 | 205 to 206 °C | O=c1c2ccc3[nH]cc(CCNS(=O)(=O)c4ccccc4)c3c2ccn1Cc1ccccc1 [Example 1022, N-[2-(7-benzyl-6-oxo-6,7-dihydro-3H-pyrrolo[3,2-f]isoquinolin-1-yl)-ethyl]-benzenesulfonamide]
